Test results: patent publication US9120849B2 (priority 2000, dated 2015)
Like-named read-outs stand apart in the source and are kept apart here.

System: HIV
Details: for HIV p24 protein in culture supernatants: CEM cells
Experimental: This example describes one method of inactivation of the purified virus according to the invention by crosslinking of surface proteins. […] Titrations of the fixative were preformed above and below the concentration recommended by the CDC for inactivation of virus in biological fluids (May 8, 1992/41 (RR-8); 001 CDC Guidelines for the Performance of CD4+ T-Cell Determinations in Persons with Human Immunodeficiency Virus Infection). Initially, purified virus was slowly thawed at 2-8° C. for 6-8 hours to minimize lysis of the virus. Next, while on ice, virus was diluted with cold PBS to a final concentration of approximately 1×10^10 copies/mL (cp/mL). […] The reaction mixtures were then incubated at 2-8° C. for 60 minutes while gently rocking. […] After the addition of glycine the reactions were gently rocked for 2 hr. at 2-8° C. To remove glycine and any excess unquenched fixative each reaction mixture was then dialyzed (10-14K m.w. cutoff) against 1 L PBS (pH 7.4, 2-8° C.) for 4 changes. Dialyzed virus was then transferred into a 15 mL tube and centrifuged for 10 min. at 3,000×g to pellet any precipitated virus. A sample of each supernatant was then tested in cell culture for the presence of infectious virus.
The modified virus produced as described in Example 2 was tested to ensure the process inactivated the virus. As an illustration, the CEM cell line, obtained from the American Type Culture Collection was used as a host cell for viral infectivity studies. Advantages of using this line are that establishment of in vitro HIV infection requires relatively few virions and that the infection is chronic rather than lytic, facilitating analysis. For these studies, infection is detected and followed using the ZeptoMetrix HIV p24 Antigen EIA (ZeptoMetrix, Buffalo N.Y.).
CEM cells are cultured in RPMI-1640 containing 10% FBS in 24 well plates Cells are plated at 10^5 cells per well in a 1 ml volume and 100 ul of various dilutions of virus, either treated or untreated, are added to individual wells. Cultures are fed twice weekly by 50% media replacement and culture supernatants are assayed for HIV p24. All cultures initially contain HIV p24. However, in cultures where virus is noninfectious HIV p24 levels decrease over time eventually reaching background levels.
Different dilutions (1:8,000, 1:80,000, and 1:800,000) of treated virus were then placed into cultures of CEM cells and p24 assays were performed on culture supernatants on days 3, 7, 10, and 14 post-inoculation. Data are expressed as pg/ml of HIV p24 protein in the culture supernatants. The standard curve for the p24 assay is linear from 7.8 pg/ml to 125 pg/ml. HIV p24 concentrations below 7.8 pg/ml are expressed as “<7.8 pg/ml” to indicate sensitivity of the assay, and values above 125 pg/ml are expressed as “>125 pg/ml” since the assay is nonlinear above 125 pg/ml.

For paraformaldehyde, the “HIV p24 protein in culture supernatants” value (exposure time 15 minutes, treated HIV diluted 1:8,000, 3 days post-inoculation) was over 125 pg/mL, the “HIV p24 protein in culture supernatants” value (exposure time 15 minutes, treated HIV diluted 1:8,000, 7 days post-inoculation) was over 125 pg/mL and the “HIV p24 protein in culture supernatants” value (exposure time 15 minutes, treated HIV diluted 1:8,000, 10 days post-inoculation) was 43.9 pg/mL. For the same substance, the “HIV p24 protein in culture supernatants” value (exposure time 15 minutes, treated HIV diluted 1:8,000, 14 days post-inoculation) was under 7.8 pg/mL, the “HIV p24 protein in culture supernatants” value (exposure time 15 minutes, treated HIV diluted 1:80,000, 3 days post-inoculation) was 27.9 pg/mL and the “HIV p24 protein in culture supernatants” value (exposure time 15 minutes, treated HIV diluted 1:80,000, 7 days post-inoculation) was 18.0 pg/mL. For the same substance, the “HIV p24 protein in culture supernatants” value (exposure time 15 minutes, treated HIV diluted 1:80,000, 10 days post-inoculation) was under 7.8 pg/mL, the “HIV p24 protein in culture supernatants” value (exposure time 15 minutes, treated HIV diluted 1:80,000, 14 days post-inoculation) was under 7.8 pg/mL and the “HIV p24 protein in culture supernatants” value (exposure time 15 minutes, treated HIV diluted 1:800,000, 3 days post-inoculation) was under 7.8 pg/mL. The “HIV p24 protein in culture supernatants” value (exposure time 15 minutes, treated HIV diluted 1:800,000, 7 days post-inoculation) was under 7.8 pg/mL, the “HIV p24 protein in culture supernatants” value (exposure time 15 minutes, treated HIV diluted 1:800,000, 10 days post-inoculation) was under 7.8 pg/mL and the “HIV p24 protein in culture supernatants” value (exposure time 15 minutes, treated HIV diluted 1:800,000, 14 days post-inoculation) was under 7.8 pg/mL. The “HIV p24 protein in culture supernatants” value (exposure time 30 minutes, treated HIV diluted 1:8,000, 3 days post-inoculation) was over 125 pg/mL, the “HIV p24 protein in culture supernatants” value (exposure time 30 minutes, treated HIV diluted 1:8,000, 7 days post-inoculation) was over 125 pg/mL and the “HIV p24 protein in culture supernatants” value (exposure time 30 minutes, treated HIV diluted 1:8,000, 10 days post-inoculation) was 46.2 pg/mL. The “HIV p24 protein in culture supernatants” value (exposure time 30 minutes, treated HIV diluted 1:8,000, 14 days post-inoculation) was under 7.8 pg/mL, the “HIV p24 protein in culture supernatants” value (exposure time 30 minutes, treated HIV diluted 1:80,000, 3 days post-inoculation) was 22.6 pg/mL and the “HIV p24 protein in culture supernatants” value (exposure time 30 minutes, treated HIV diluted 1:80,000, 7 days post-inoculation) was 10.3 pg/mL. The “HIV p24 protein in culture supernatants” value (exposure time 30 minutes, treated HIV diluted 1:80,000, 10 days post-inoculation) was under 7.8 pg/mL, the “HIV p24 protein in culture supernatants” value (exposure time 30 minutes, treated HIV diluted 1:80,000, 14 days post-inoculation) was under 7.8 pg/mL and the “HIV p24 protein in culture supernatants” value (exposure time 30 minutes, treated HIV diluted 1:800,000, 3 days post-inoculation) was under 7.8 pg/mL. For the same substance, the “HIV p24 protein in culture supernatants” value (exposure time 30 minutes, treated HIV diluted 1:800,000, 7 days post-inoculation) was under 7.8 pg/mL, the “HIV p24 protein in culture supernatants” value (exposure time 30 minutes, treated HIV diluted 1:800,000, 10 days post-inoculation) was under 7.8 pg/mL and the “HIV p24 protein in culture supernatants” value (exposure time 30 minutes, treated HIV diluted 1:800,000, 14 days post-inoculation) was under 7.8 pg/mL. The “HIV p24 protein in culture supernatants” value (exposure time 60 minutes, treated HIV diluted 1:8,000, 3 days post-inoculation) was over 125 pg/mL, the “HIV p24 protein in culture supernatants” value (exposure time 60 minutes, treated HIV diluted 1:8,000, 7 days post-inoculation) was over 125 pg/mL and the “HIV p24 protein in culture supernatants” value (exposure time 60 minutes, treated HIV diluted 1:8,000, 10 days post-inoculation) was 87.4 pg/mL. For the same substance, the “HIV p24 protein in culture supernatants” value (exposure time 60 minutes, treated HIV diluted 1:8,000, 14 days post-inoculation) was under 7.8 pg/mL, the “HIV p24 protein in culture supernatants” value (exposure time 60 minutes, treated HIV diluted 1:80,000, 3 days post-inoculation) was 59.8 pg/mL and the “HIV p24 protein in culture supernatants” value (exposure time 60 minutes, treated HIV diluted 1:80,000, 7 days post-inoculation) was 36.0 pg/mL. The “HIV p24 protein in culture supernatants” value (exposure time 60 minutes, treated HIV diluted 1:80,000, 10 days post-inoculation) was under 7.8 pg/mL, the “HIV p24 protein in culture supernatants” value (exposure time 60 minutes, treated HIV diluted 1:80,000, 14 days post-inoculation) was under 7.8 pg/mL and the “HIV p24 protein in culture supernatants” value (exposure time 60 minutes, treated HIV diluted 1:800,000, 3 days post-inoculation) was under 7.8 pg/mL. For the same substance, the “HIV p24 protein in culture supernatants” value (exposure time 60 minutes, treated HIV diluted 1:800,000, 7 days post-inoculation) was under 7.8 pg/mL, the “HIV p24 protein in culture supernatants” value (exposure time 60 minutes, treated HIV diluted 1:800,000, 10 days post-inoculation) was under 7.8 pg/mL and the “HIV p24 protein in culture supernatants” value (exposure time 60 minutes, treated HIV diluted 1:800,000, 14 days post-inoculation) was under 7.8 pg/mL. The “HIV p24 protein in culture supernatants” value (exposure time Overnight, treated HIV diluted 1:8,000, 3 days post-inoculation) was over 125 pg/mL, the “HIV p24 protein in culture supernatants” value (exposure time Overnight, treated HIV diluted 1:8,000, 7 days post-inoculation) was over 125 pg/mL and the “HIV p24 protein in culture supernatants” value (exposure time Overnight, treated HIV diluted 1:8,000, 10 days post-inoculation) was 27.6 pg/mL. The “HIV p24 protein in culture supernatants” value (exposure time Overnight, treated HIV diluted 1:8,000, 14 days post-inoculation) was under 7.8 pg/mL, the “HIV p24 protein in culture supernatants” value (exposure time Overnight, treated HIV diluted 1:80,000, 3 days post-inoculation) was 16.3 pg/mL and the “HIV p24 protein in culture supernatants” value (exposure time Overnight, treated HIV diluted 1:80,000, 7 days post-inoculation) was 17.5 pg/mL. The “HIV p24 protein in culture supernatants” value (exposure time Overnight, treated HIV diluted 1:80,000, 10 days post-inoculation) was under 7.8 pg/mL, the “HIV p24 protein in culture supernatants” value (exposure time Overnight, treated HIV diluted 1:80,000, 14 days post-inoculation) was under 7.8 pg/mL and the “HIV p24 protein in culture supernatants” value (exposure time Overnight, treated HIV diluted 1:800,000, 3 days post-inoculation) was under 7.8 pg/mL. The “HIV p24 protein in culture supernatants” value (exposure time Overnight, treated HIV diluted 1:800,000, 7 days post-inoculation) was under 7.8 pg/mL, the “HIV p24 protein in culture supernatants” value (exposure time Overnight, treated HIV diluted 1:800,000, 10 days post-inoculation) was under 7.8 pg/mL and the “HIV p24 protein in culture supernatants” value (exposure time Overnight, treated HIV diluted 1:800,000, 14 days post-inoculation) was under 7.8 pg/mL. For the same substance, the “amounts of p24 in the culture supernatants” value (treatment of virus with paraformaldehyde, by day 14) was “non-detectable”.
